# Results: the NIST ThermoML archive (doi:10.1016/j.jct.2016.12.036)
# Numbers after ± are expanded uncertainties.
# Assays:
# [1] = refractive index (Na D-line) (dimensionless); conditions: 298.15 K; 81.5 kPa; Liquid; Standard Abbe refractometry
# [2] = 298.15 K, 81.5 kPa, Liquid; for viscosity: Capillary tube (Ostwald / Ubbelohde) method; for mass density: Vibrating tube method
# [3] = excess molar enthalpy (molar enthalpy of mixing); xn = mol fraction of the nth substance listed; conditions: 298 K, 81.5 kPa, Liquid, Isoperibol calorimetry
smiles,measurement,setting,value
CCCCO [butan-1-ol],refractive index,[1],1.3967 ± 0.001
same,viscosity,[2],2.572 ± 0.055 mPa·s
same,mass density,[2],806 ± 1 kg/m3
CCC(C)O (stereo not given) [butan-2-ol],refractive index,[1],1.3945 ± 0.0011
same,viscosity,[2],3.05 ± 0.067 mPa·s
same,mass density,[2],802.5 ± 1 kg/m3
"NCCN [ethane-1,2-diamine]",refractive index,[1],1.4537 ± 0.0011
same,viscosity,[2],1.385 ± 0.029 mPa·s
same,mass density,[2],892.8 ± 1 kg/m3
"NCCN [ethane-1,2-diamine] + CC(C)O",excess molar enthalpy,[3]; x1 = 0.1001,-0.209 ± 0.00263 kcal/mol
same,excess molar enthalpy,[3]; x1 = 0.2,-0.372 ± 0.00478 kcal/mol
same,excess molar enthalpy,[3]; x1 = 0.3007,-0.462 ± 0.00574 kcal/mol
same,excess molar enthalpy,[3]; x1 = 0.4033,-0.478 ± 0.00598 kcal/mol
same,excess molar enthalpy,[3]; x1 = 0.5073,-0.435 ± 0.0055 kcal/mol
same,excess molar enthalpy,[3]; x1 = 0.5963,-0.363 ± 0.00454 kcal/mol
same,excess molar enthalpy,[3]; x1 = 0.6988,-0.275 ± 0.00359 kcal/mol
same,excess molar enthalpy,[3]; x1 = 0.7998,-0.179 ± 0.00232 kcal/mol
same,excess molar enthalpy,[3]; x1 = 0.8998,-0.0844 ± 0.0012 kcal/mol
"NCCN [ethane-1,2-diamine] + CCC(C)O",excess molar enthalpy,[3]; x1 = 0.0999,-0.204 ± 0.00263 kcal/mol
same,excess molar enthalpy,[3]; x1 = 0.1999,-0.369 ± 0.00454 kcal/mol
same,excess molar enthalpy,[3]; x1 = 0.3009,-0.461 ± 0.00574 kcal/mol
same,excess molar enthalpy,[3]; x1 = 0.4025,-0.473 ± 0.00598 kcal/mol
same,excess molar enthalpy,[3]; x1 = 0.5055,-0.424 ± 0.00526 kcal/mol
same,excess molar enthalpy,[3]; x1 = 0.6098,-0.338 ± 0.0043 kcal/mol
same,excess molar enthalpy,[3]; x1 = 0.6982,-0.237 ± 0.00311 kcal/mol
same,excess molar enthalpy,[3]; x1 = 0.7999,-0.143 ± 0.00189 kcal/mol
same,excess molar enthalpy,[3]; x1 = 0.9,-0.0601 ± 0.000908 kcal/mol
"NCCN [ethane-1,2-diamine] + CCCCO",excess molar enthalpy,[3]; x1 = 0.1003,-0.275 ± 0.00359 kcal/mol
same,excess molar enthalpy,[3]; x1 = 0.2002,-0.486 ± 0.00598 kcal/mol
same,excess molar enthalpy,[3]; x1 = 0.3011,-0.594 ± 0.00741 kcal/mol
same,excess molar enthalpy,[3]; x1 = 0.4024,-0.6 ± 0.00741 kcal/mol
same,excess molar enthalpy,[3]; x1 = 0.5053,-0.535 ± 0.00669 kcal/mol
same,excess molar enthalpy,[3]; x1 = 0.6097,-0.428 ± 0.00526 kcal/mol
same,excess molar enthalpy,[3]; x1 = 0.6983,-0.312 ± 0.00406 kcal/mol
same,excess molar enthalpy,[3]; x1 = 0.8,-0.192 ± 0.00239 kcal/mol
same,excess molar enthalpy,[3]; x1 = 0.8999,-0.0853 ± 0.00122 kcal/mol
"NCCN [ethane-1,2-diamine] + CCCO",excess molar enthalpy,[3]; x1 = 0.1,-0.307 ± 0.00406 kcal/mol
same,excess molar enthalpy,[3]; x1 = 0.199,-0.529 ± 0.00669 kcal/mol
same,excess molar enthalpy,[3]; x1 = 0.3043,-0.65 ± 0.00813 kcal/mol
same,excess molar enthalpy,[3]; x1 = 0.4066,-0.66 ± 0.00813 kcal/mol
same,excess molar enthalpy,[3]; x1 = 0.5106,-0.594 ± 0.00741 kcal/mol
same,excess molar enthalpy,[3]; x1 = 0.5944,-0.507 ± 0.00621 kcal/mol
same,excess molar enthalpy,[3]; x1 = 0.697,-0.387 ± 0.00478 kcal/mol
same,excess molar enthalpy,[3]; x1 = 0.7983,-0.254 ± 0.00335 kcal/mol
same,excess molar enthalpy,[3]; x1 = 0.8996,-0.121 ± 0.00167 kcal/mol
"NCCN [ethane-1,2-diamine] + CCO",excess molar enthalpy,[3]; x1 = 0.1003,-0.354 ± 0.00454 kcal/mol
same,excess molar enthalpy,[3]; x1 = 0.201,-0.6 ± 0.00741 kcal/mol
same,excess molar enthalpy,[3]; x1 = 0.301,-0.72 ± 0.00884 kcal/mol
same,excess molar enthalpy,[3]; x1 = 0.4042,-0.735 ± 0.00908 kcal/mol
same,excess molar enthalpy,[3]; x1 = 0.4958,-0.688 ± 0.0086 kcal/mol
same,excess molar enthalpy,[3]; x1 = 0.5987,-0.584 ± 0.00717 kcal/mol
same,excess molar enthalpy,[3]; x1 = 0.7006,-0.452 ± 0.00574 kcal/mol
same,excess molar enthalpy,[3]; x1 = 0.8007,-0.305 ± 0.00382 kcal/mol
same,excess molar enthalpy,[3]; x1 = 0.8987,-0.153 ± 0.00208 kcal/mol
"NCCN [ethane-1,2-diamine] + CO",excess molar enthalpy,[3]; x1 = 0.0995,-0.486 ± 0.00621 kcal/mol
same,excess molar enthalpy,[3]; x1 = 0.1972,-0.831 ± 0.0103 kcal/mol
same,excess molar enthalpy,[3]; x1 = 0.295,-1.01 ± 0.0124 kcal/mol
same,excess molar enthalpy,[3]; x1 = 0.3909,-1.05 ± 0.0129 kcal/mol
same,excess molar enthalpy,[3]; x1 = 0.4934,-0.976 ± 0.012 kcal/mol
same,excess molar enthalpy,[3]; x1 = 0.5948,-0.834 ± 0.0103 kcal/mol
same,excess molar enthalpy,[3]; x1 = 0.6953,-0.655 ± 0.00813 kcal/mol
same,excess molar enthalpy,[3]; x1 = 0.7971,-0.449 ± 0.00574 kcal/mol
same,excess molar enthalpy,[3]; x1 = 0.8994,-0.225 ± 0.00311 kcal/mol
CCO [ethanol],refractive index,[1],1.3588 ± 0.001
same,viscosity,[2],1.093 ± 0.023 mPa·s
same,mass density,[2],785.2 ± 1 kg/m3
CO [methanol],refractive index,[1],1.3263 ± 0.0011
same,viscosity,[2],0.573 ± 0.012 mPa·s
same,mass density,[2],786.7 ± 1 kg/m3
CCCO [propan-1-ol],refractive index,[1],1.3825 ± 0.001
same,viscosity,[2],1.943 ± 0.041 mPa·s
same,mass density,[2],799.5 ± 1 kg/m3
CC(C)O [propan-2-ol],refractive index,[1],1.3745 ± 0.0011
same,viscosity,[2],2.067 ± 0.044 mPa·s
same,mass density,[2],781 ± 1 kg/m3
